“And” between values parts separate entries of the source, which are not always exact repeats. Equal entries are not always repeated.
Assay: Clinical trial APD356-016: plasma and urine pharmacokinetics of lorcaserin, M1 and M5 after a 10 mg dose in subjects with renal impairment
Details: Severe Renal Impairment Not Receiving Dialysis; for Plasma Concentration of HSO3-APD356 Metabolite, Max: group Max; for Plasma Concentration of HSO3-APD356 Metabolite, Max / Plasma Concentration of HSO3-APD356 Metabolite, Mean / Plasma Concentration of HSO3-APD356 Metabolite, Median / Plasma Concentration of HSO3-APD356 Metabolite, Min: N 8; for Plasma Concentration of HSO3-APD356 Metabolite, Mean: group Mean; for Plasma Concentration of HSO3-APD356 Metabolite, Median: group Median; for Plasma Concentration of HSO3-APD356 Metabolite, Min: group Min; for Plasma Concentration of HSO3-APD356 Metabolite: individual subject
Description: The interaction of renal insufficiency with the pharmacokinetics, tolerability and safety of lorcaserin were evaluated in a formal PK study in subjects with renal impairment and in the populations studied in phase 2 and phase 3 clinical studies.
The pharmacokinetic properties of lorcaserin in subjects with varying degrees of renal impairment were evaluated in clinical trial APD356-016. At the time of study conduct and analysis, subjects were assigned to renal impairment groups based on creatinine clearance calculated using IDEAL body weight (Table 1). This calculation was used to avoid overestimation of creatinine clearance due to the excess body weight (overweight and obese subjects were enrolled in the trial). Summaries of pharmacokinetic properties by group assignment using creatinine clearance calculated using ACTUAL body weights are also provided in the sections that follow.
The FDA expects a reasonable margin between anticipated exposures and exposures that may produce toxicity. A reasonable margin can vary depending on the expected toxicity, but generally is an order of magnitude (10 times), but can sometimes be less for mild toxicity.
Table 13. Summary of Plasma Concentrations (ng/mL) of HSO3-APD356 Metabolite over Time by Group: Severe Renal Impairment Not Receiving Dialysis (see Table 13 next page)
Subject number 3140-505 was on dialysis and grouped in the end stage renal disease group.

## C[C@H]1CN(S(=O)(=O)O)CCc2ccc(Cl)cc21 [HSO3-APD356 Metabolite]
Day 1 0.5 h
  Plasma Concentration of HSO3-APD356 Metabolite, Max: 182 ng/mL
  Plasma Concentration of HSO3-APD356 Metabolite, Mean: 25.7 ng/mL
  Plasma Concentration of HSO3-APD356 Metabolite, Median: 1.33 ng/mL
  Plasma Concentration of HSO3-APD356 Metabolite, Min: 0.00 ng/mL
  Plasma Concentration of HSO3-APD356 Metabolite: 182 ng/mL and 2.66 ng/mL and 8.54 ng/mL and 0.00 ng/mL (2×) and 12.2 ng/mL
Day 1 1 h
  Plasma Concentration of HSO3-APD356 Metabolite, Max: 319 ng/mL
  Plasma Concentration of HSO3-APD356 Metabolite, Mean: 50.6 ng/mL
  Plasma Concentration of HSO3-APD356 Metabolite, Median: 12.6 ng/mL
  Plasma Concentration of HSO3-APD356 Metabolite, Min: 0.00 ng/mL
  Plasma Concentration of HSO3-APD356 Metabolite: 319 ng/mL and 22.8 ng/mL and 18.0 ng/mL and 0.00 ng/mL and 31.4 ng/mL and 4.30 ng/mL
Day 1 2 h
  Plasma Concentration of HSO3-APD356 Metabolite, Max: 489 ng/mL
  Plasma Concentration of HSO3-APD356 Metabolite, Mean: 83.2 ng/mL
  Plasma Concentration of HSO3-APD356 Metabolite, Median: 24.5 ng/mL
  Plasma Concentration of HSO3-APD356 Metabolite, Min: 6.08 ng/mL
  Plasma Concentration of HSO3-APD356 Metabolite: 489 ng/mL and 42.2 ng/mL and 25.1 ng/mL and 6.08 ng/mL and 53.2 ng/mL and 13.3 ng/mL
Day 1 3 h
  Plasma Concentration of HSO3-APD356 Metabolite, Max: 468 ng/mL
  Plasma Concentration of HSO3-APD356 Metabolite, Mean: 86.8 ng/mL
  Plasma Concentration of HSO3-APD356 Metabolite, Median: 27.5 ng/mL
  Plasma Concentration of HSO3-APD356 Metabolite, Min: 17.6 ng/mL
  Plasma Concentration of HSO3-APD356 Metabolite: 468 ng/mL and 52.4 ng/mL and 26.5 ng/mL and 17.6 ng/mL and 55.6 ng/mL and 20.9 ng/mL
Day 1 4 h
  Plasma Concentration of HSO3-APD356 Metabolite, Max: 542 ng/mL
  Plasma Concentration of HSO3-APD356 Metabolite, Mean: 99.5 ng/mL
  Plasma Concentration of HSO3-APD356 Metabolite, Median: 31.6 ng/mL
  Plasma Concentration of HSO3-APD356 Metabolite, Min: 25.4 ng/mL
  Plasma Concentration of HSO3-APD356 Metabolite: 542 ng/mL and 53.3 ng/mL and 28.2 ng/mL and 28.6 ng/mL and 55.1 ng/mL and 25.4 ng/mL
Day 1 6 h
  Plasma Concentration of HSO3-APD356 Metabolite, Max: 445 ng/mL
  Plasma Concentration of HSO3-APD356 Metabolite, Mean: 86.7 ng/mL
  Plasma Concentration of HSO3-APD356 Metabolite, Median: 32.8 ng/mL
  Plasma Concentration of HSO3-APD356 Metabolite, Min: 26.1 ng/mL
  Plasma Concentration of HSO3-APD356 Metabolite: 445 ng/mL and 51.9 ng/mL and 32.2 ng/mL and 29.8 ng/mL and 46.5 ng/mL and 26.1 ng/mL
Day 1 8 h
  Plasma Concentration of HSO3-APD356 Metabolite, Max: 473 ng/mL
  Plasma Concentration of HSO3-APD356 Metabolite, Mean: 88.9 ng/mL
  Plasma Concentration of HSO3-APD356 Metabolite, Median: 29.5 ng/mL
  Plasma Concentration of HSO3-APD356 Metabolite, Min: 25.8 ng/mL
  Plasma Concentration of HSO3-APD356 Metabolite: 473 ng/mL and 49.7 ng/mL and 27.8 ng/mL and 29.2 ng/mL and 50.4 ng/mL and 25.8 ng/mL
Day 1 12 h
  Plasma Concentration of HSO3-APD356 Metabolite, Max: 439 ng/mL
  Plasma Concentration of HSO3-APD356 Metabolite, Mean: 84.3 ng/mL
  Plasma Concentration of HSO3-APD356 Metabolite, Median: 28.9 ng/mL
  Plasma Concentration of HSO3-APD356 Metabolite, Min: 25.4 ng/mL
  Plasma Concentration of HSO3-APD356 Metabolite: 439 ng/mL and 45.9 ng/mL and 27.2 ng/mL and 27.3 ng/mL and 52.2 ng/mL and 25.4 ng/mL
Day 1 16 h
  Plasma Concentration of HSO3-APD356 Metabolite, Max: 410 ng/mL
  Plasma Concentration of HSO3-APD356 Metabolite, Mean: 76.8 ng/mL
  Plasma Concentration of HSO3-APD356 Metabolite, Median: 28.1 ng/mL
  Plasma Concentration of HSO3-APD356 Metabolite, Min: 18.0 ng/mL
  Plasma Concentration of HSO3-APD356 Metabolite: 410 ng/mL and 46.9 ng/mL and 28.1 ng/mL and 27.5 ng/mL and 18.0 ng/mL and 28.0 ng/mL and 30.6 ng/mL
Day 1 Predose
  Plasma Concentration of HSO3-APD356 Metabolite, Max: 9.00 ng/mL
  Plasma Concentration of HSO3-APD356 Metabolite, Mean: 1.13 ng/mL
  Plasma Concentration of HSO3-APD356 Metabolite, Median: 0.00 ng/mL
  Plasma Concentration of HSO3-APD356 Metabolite, Min: 0.00 ng/mL
  Plasma Concentration of HSO3-APD356 Metabolite: 0.00 ng/mL (6×) and 9.00 ng/mL
Day 2 24 h
  Plasma Concentration of HSO3-APD356 Metabolite, Max: 406 ng/mL
  Plasma Concentration of HSO3-APD356 Metabolite, Mean: 84.4 ng/mL
  Plasma Concentration of HSO3-APD356 Metabolite, Median: 32.5 ng/mL
  Plasma Concentration of HSO3-APD356 Metabolite, Min: 27.1 ng/mL
  Plasma Concentration of HSO3-APD356 Metabolite: 406 ng/mL and 51.1 ng/mL and 33.0 ng/mL and 31.9 ng/mL and 62.4 ng/mL and 31.6 ng/mL and 32.0 ng/mL
Day 2 36 h
  Plasma Concentration of HSO3-APD356 Metabolite, Max: 336 ng/mL
  Plasma Concentration of HSO3-APD356 Metabolite, Mean: 73.9 ng/mL
  Plasma Concentration of HSO3-APD356 Metabolite, Median: 35.5 ng/mL
  Plasma Concentration of HSO3-APD356 Metabolite, Min: 27.8 ng/mL
  Plasma Concentration of HSO3-APD356 Metabolite: 336 ng/mL and 45.5 ng/mL and 40.4 ng/mL and 30.6 ng/mL (2×) and 52.2 ng/mL and 28.4 ng/mL
Day 3 48 h
  Plasma Concentration of HSO3-APD356 Metabolite, Max: 292 ng/mL
  Plasma Concentration of HSO3-APD356 Metabolite, Mean: 68.1 ng/mL
  Plasma Concentration of HSO3-APD356 Metabolite, Median: 33.8 ng/mL
  Plasma Concentration of HSO3-APD356 Metabolite, Min: 25.8 ng/mL
  Plasma Concentration of HSO3-APD356 Metabolite: 292 ng/mL and 47.2 ng/mL and 34.3 ng/mL and 31.0 ng/mL and 54.2 ng/mL and 33.3 ng/mL
Day 4 72 h
  Plasma Concentration of HSO3-APD356 Metabolite, Max: 248 ng/mL
  Plasma Concentration of HSO3-APD356 Metabolite, Mean: 58.3 ng/mL
  Plasma Concentration of HSO3-APD356 Metabolite, Median: 31.6 ng/mL
  Plasma Concentration of HSO3-APD356 Metabolite, Min: 19.7 ng/mL
  Plasma Concentration of HSO3-APD356 Metabolite: 248 ng/mL and 40.2 ng/mL and 33.0 ng/mL and 27.9 ng/mL and 46.2 ng/mL and 30.2 ng/mL
Day 5 96 h
  Plasma Concentration of HSO3-APD356 Metabolite, Max: 225 ng/mL
  Plasma Concentration of HSO3-APD356 Metabolite, Mean: 53.8 ng/mL
  Plasma Concentration of HSO3-APD356 Metabolite, Median: 31.3 ng/mL
  Plasma Concentration of HSO3-APD356 Metabolite, Min: 15.1 ng/mL
  Plasma Concentration of HSO3-APD356 Metabolite: 225 ng/mL and 36.0 ng/mL and 30.2 ng/mL and 28.5 ng/mL and 43.8 ng/mL and 32.3 ng/mL
Day 6 120 h
  Plasma Concentration of HSO3-APD356 Metabolite, Max: 212 ng/mL
  Plasma Concentration of HSO3-APD356 Metabolite, Mean: 49.2 ng/mL
  Plasma Concentration of HSO3-APD356 Metabolite, Median: 27.5 ng/mL
  Plasma Concentration of HSO3-APD356 Metabolite, Min: 12.3 ng/mL
  Plasma Concentration of HSO3-APD356 Metabolite: 212 ng/mL and 30.4 ng/mL and 26.3 ng/mL and 25.2 ng/mL and 40.1 ng/mL and 28.6 ng/mL

— patent publication US8999970B2, “Administration of an anti-obesity compound to individuals with renal impairment” (Arena Pharmaceuticals, Inc., priority 2010, dated 2015)
